Source: publication PMC11233931, “Remodeling tumor‐associated macrophage for anti‐cancer effects by rational design of irreversible inhibition of mitogen‐activated protein kinase‐activated protein kinase 2” (MedComm, 2024)

Experiments:
Assay in all cases: Eurofins kinase selectivity profile against 380 other human recombinant kinases (Table S2)
Assay type in all cases: biochemical
[1] = target: T1, 380 human recombinant protein kinases (Homo sapiens, UniProt P42338); details: PI3 Kinase (p110β/p85α)(h), read-out: Inhibition rate (%)
T1 construct: purchased Eurofins (Celle Lévescault)
Summary of the method: (§1)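 Profiling against 380 human recombinant kinases carried out by Eurofins at various compound concentrations.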

[2] = target: T2, 380 human recombinant protein kinases (Homo sapiens, UniProt P42681); details: Txk(h), read-out: Inhibition rate (%)
T2 construct: purchased Eurofins (Celle Lévescault)
T2 sequence (P42681 1-527): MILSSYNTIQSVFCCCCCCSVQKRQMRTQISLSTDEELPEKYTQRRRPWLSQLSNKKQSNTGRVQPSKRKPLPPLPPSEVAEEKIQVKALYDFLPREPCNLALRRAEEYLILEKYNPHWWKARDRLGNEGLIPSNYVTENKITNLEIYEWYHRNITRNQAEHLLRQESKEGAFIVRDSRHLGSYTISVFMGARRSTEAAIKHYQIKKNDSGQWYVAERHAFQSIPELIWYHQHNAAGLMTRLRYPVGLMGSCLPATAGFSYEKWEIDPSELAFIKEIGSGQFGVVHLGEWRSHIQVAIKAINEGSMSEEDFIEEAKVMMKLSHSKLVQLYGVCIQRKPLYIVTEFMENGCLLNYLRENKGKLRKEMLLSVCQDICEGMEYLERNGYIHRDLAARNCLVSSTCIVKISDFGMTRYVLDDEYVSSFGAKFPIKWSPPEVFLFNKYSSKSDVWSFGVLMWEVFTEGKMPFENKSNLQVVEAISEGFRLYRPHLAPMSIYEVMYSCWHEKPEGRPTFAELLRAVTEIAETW
Summary of the method: as §1

[3] = target: T3, 380 human recombinant protein kinases (Homo sapiens, UniProt P27448); details: MARK3(h), read-out: Inhibition rate
T3 construct: purchased Eurofins (Celle Lévescault)
Summary of the method: as §1

[4] = target: T4, 380 human recombinant protein kinases (Homo sapiens, UniProt Q00537); details: CDK17/cyclinY(h), read-out: Inhibition rate
T4 construct: purchased Eurofins (Celle Lévescault)
Summary of the method: as §1

[5] = target: T5, 380 human recombinant protein kinases (Homo sapiens, UniProt O00311); details: Cdc7/cyclinB1(h), read-out: Inhibition rate
T5 construct: purchased Eurofins (Celle Lévescault)
Summary of the method: as §1

[6] = target: T6, 380 human recombinant protein kinases (Homo sapiens, UniProt P15735); details: PhKγ2(h), read-out: Inhibition rate
T6 construct: purchased Eurofins (Celle Lévescault)
T6 sequence (P15735 1-406): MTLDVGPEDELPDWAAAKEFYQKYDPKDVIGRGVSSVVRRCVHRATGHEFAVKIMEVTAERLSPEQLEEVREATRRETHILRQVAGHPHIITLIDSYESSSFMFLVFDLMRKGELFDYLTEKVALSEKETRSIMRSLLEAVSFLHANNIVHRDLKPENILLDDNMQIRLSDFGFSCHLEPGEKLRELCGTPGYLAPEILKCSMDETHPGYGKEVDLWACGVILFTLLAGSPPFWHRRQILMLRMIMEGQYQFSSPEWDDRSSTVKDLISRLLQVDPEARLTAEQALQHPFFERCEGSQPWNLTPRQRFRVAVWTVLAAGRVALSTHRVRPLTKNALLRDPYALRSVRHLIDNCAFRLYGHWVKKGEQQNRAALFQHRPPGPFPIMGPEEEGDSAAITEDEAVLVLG
Summary of the method: as §1

[7] = target: T7, 380 human recombinant protein kinases (Homo sapiens, UniProt Q86Z02); details: HIPK1(h), read-out: Inhibition rate
T7 construct: purchased Eurofins (Celle Lévescault)
Summary of the method: as §1

T3 sequence (P27448 whole entry): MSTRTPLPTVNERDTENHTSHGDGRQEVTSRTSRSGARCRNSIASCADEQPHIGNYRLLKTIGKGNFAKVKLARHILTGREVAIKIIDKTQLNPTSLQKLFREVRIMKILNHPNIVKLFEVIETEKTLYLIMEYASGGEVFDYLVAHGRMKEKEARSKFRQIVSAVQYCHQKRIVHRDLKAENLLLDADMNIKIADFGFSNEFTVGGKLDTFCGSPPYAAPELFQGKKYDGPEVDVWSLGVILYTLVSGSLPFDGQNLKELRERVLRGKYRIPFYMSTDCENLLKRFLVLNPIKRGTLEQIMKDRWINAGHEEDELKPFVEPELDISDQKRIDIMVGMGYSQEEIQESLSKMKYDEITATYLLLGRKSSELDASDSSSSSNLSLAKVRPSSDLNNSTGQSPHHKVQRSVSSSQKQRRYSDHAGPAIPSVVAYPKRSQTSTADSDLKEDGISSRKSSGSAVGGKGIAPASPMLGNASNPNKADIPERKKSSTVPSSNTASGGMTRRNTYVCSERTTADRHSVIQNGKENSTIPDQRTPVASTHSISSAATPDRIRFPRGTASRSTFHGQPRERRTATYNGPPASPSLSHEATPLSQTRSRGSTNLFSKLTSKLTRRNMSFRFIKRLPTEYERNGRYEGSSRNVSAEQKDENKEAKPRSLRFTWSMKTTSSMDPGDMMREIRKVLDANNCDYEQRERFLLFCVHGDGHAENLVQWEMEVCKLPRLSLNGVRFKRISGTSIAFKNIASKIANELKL
T4 sequence (Q00537 whole entry): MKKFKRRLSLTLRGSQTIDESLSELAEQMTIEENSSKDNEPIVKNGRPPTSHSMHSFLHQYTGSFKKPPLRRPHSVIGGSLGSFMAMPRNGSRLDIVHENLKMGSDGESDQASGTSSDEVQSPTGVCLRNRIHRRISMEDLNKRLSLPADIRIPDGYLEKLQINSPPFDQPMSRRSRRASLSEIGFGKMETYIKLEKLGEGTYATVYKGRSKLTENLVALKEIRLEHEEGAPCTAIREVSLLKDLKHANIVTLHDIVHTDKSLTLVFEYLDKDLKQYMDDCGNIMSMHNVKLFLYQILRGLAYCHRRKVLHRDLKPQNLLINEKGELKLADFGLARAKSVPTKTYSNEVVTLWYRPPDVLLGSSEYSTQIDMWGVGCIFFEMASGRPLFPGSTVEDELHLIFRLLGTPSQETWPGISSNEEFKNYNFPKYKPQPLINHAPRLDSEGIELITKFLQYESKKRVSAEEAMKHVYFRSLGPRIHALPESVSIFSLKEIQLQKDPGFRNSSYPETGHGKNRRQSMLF
T7 sequence (Q86Z02 whole entry): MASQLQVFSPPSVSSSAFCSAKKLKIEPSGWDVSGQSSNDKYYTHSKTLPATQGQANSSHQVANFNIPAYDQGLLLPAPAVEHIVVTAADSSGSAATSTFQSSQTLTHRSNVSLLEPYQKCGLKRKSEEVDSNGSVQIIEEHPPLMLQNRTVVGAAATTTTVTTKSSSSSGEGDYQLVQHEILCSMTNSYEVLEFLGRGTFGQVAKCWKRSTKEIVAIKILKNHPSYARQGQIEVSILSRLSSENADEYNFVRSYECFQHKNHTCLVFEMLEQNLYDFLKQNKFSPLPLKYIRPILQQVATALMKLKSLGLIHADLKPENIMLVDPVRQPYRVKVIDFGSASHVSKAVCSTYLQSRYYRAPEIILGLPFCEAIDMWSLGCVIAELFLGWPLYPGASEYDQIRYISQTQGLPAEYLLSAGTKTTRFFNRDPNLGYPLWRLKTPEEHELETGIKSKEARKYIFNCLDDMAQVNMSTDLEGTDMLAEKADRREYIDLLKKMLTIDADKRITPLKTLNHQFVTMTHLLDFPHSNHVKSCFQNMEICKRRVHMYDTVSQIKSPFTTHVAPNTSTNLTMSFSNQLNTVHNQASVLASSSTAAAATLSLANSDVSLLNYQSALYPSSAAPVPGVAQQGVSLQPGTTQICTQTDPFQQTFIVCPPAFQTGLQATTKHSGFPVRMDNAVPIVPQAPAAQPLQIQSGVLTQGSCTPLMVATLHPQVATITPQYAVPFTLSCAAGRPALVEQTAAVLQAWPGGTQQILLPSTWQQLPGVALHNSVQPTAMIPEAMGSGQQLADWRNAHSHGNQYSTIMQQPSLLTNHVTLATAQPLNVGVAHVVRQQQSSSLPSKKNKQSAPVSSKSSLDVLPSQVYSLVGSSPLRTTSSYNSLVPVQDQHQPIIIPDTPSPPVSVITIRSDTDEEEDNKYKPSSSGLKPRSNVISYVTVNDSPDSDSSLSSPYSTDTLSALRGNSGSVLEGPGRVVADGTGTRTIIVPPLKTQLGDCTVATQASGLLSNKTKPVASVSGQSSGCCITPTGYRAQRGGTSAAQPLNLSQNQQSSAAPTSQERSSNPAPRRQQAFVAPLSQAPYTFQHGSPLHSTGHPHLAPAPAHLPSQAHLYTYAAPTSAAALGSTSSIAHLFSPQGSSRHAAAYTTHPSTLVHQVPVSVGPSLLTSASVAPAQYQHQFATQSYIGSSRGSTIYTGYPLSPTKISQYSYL
T5 sequence (O00311 whole entry): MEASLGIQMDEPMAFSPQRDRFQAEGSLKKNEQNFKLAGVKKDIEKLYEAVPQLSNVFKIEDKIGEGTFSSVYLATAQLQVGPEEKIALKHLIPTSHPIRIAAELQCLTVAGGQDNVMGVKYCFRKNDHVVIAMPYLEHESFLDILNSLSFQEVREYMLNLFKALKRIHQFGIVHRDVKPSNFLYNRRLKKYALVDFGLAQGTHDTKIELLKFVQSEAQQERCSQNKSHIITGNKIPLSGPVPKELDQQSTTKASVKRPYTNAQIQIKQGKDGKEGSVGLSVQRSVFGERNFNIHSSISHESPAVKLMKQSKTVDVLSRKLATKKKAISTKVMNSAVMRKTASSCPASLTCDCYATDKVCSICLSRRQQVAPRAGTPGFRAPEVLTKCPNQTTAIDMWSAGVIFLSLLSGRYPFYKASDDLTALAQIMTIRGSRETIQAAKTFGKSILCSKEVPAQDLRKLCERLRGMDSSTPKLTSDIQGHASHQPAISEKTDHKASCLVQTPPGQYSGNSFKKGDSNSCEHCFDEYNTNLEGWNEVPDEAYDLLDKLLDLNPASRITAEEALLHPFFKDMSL
T1 sequence (P42338 whole entry): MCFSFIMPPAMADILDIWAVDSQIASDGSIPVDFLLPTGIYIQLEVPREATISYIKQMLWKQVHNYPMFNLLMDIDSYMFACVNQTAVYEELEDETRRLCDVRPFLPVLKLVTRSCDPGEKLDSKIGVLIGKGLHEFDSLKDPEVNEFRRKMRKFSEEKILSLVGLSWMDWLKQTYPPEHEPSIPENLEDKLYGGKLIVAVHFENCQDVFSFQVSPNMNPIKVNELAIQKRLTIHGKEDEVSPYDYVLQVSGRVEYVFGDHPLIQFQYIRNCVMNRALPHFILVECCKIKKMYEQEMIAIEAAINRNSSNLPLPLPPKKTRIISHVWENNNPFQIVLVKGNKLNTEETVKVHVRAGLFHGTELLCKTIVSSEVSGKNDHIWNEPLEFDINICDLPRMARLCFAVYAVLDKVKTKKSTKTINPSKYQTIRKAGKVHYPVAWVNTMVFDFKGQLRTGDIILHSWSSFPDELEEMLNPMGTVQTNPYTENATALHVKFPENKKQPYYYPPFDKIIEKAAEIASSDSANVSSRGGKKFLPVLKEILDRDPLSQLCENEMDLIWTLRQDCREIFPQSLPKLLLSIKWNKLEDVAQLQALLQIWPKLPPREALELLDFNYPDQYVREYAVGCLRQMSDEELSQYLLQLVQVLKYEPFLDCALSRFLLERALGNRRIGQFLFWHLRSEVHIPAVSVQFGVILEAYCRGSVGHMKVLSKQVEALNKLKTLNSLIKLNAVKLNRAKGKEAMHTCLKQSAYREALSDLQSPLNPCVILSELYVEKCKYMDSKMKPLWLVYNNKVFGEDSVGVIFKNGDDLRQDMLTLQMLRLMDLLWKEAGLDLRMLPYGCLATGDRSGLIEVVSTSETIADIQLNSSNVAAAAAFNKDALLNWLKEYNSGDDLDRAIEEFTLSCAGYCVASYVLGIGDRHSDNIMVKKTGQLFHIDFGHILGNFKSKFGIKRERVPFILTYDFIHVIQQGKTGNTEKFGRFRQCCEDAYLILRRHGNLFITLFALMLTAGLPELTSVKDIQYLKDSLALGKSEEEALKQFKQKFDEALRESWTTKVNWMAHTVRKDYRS

Question: For `C=CC(=O)Nc1cc(-c2cc(-c3cc4c([nH]3)CCNC4=O)ccn2)ccc1OC(F)(F)F` [compound 11], which inhibition at 0.01 µM ([1]; 10 nM) is on record?
Answer: The inhibition at 0.01 µM was -1%.

Question: And the inhibition at 0.1 µM ([1]; 100 nM)?
Answer: The inhibition at 0.1 µM was -1%.

Question: What about the inhibition at 1 µM ([1]; 1000 nM) of the same molecule?
Answer: Its inhibition at 1 µM is -1%.

Question: And the inhibition at 0.01 µM ([2]; 10 nM)?
Answer: The inhibition at 0.01 µM was -3%.

Question: And the inhibition at 0.1 µM ([2]; 100 nM)?
Answer: Its inhibition at 0.1 µM is 1%.

Question: What about the inhibition at 1 µM ([2]; 1000 nM) of the same molecule?
Answer: The inhibition at 1 µM was -1%.

Question: What about the inhibition at 0.01 µM ([3]; 10 nM) of the same molecule?
Answer: Its inhibition at 0.01 µM is 2%.

Question: And the inhibition at 0.1 µM ([3]; 100 nM)?
Answer: Its inhibition at 0.1 µM is -4%.

Question: What about the inhibition at 1 µM ([3]; 1000 nM) of the same molecule?
Answer: The inhibition at 1 µM was 5%.

Question: What about the inhibition at 0.01 µM ([4]; 10 nM) of the same molecule?
Answer: Its inhibition at 0.01 µM is 13%.

Question: What about the inhibition at 0.1 µM ([4]; 100 nM) of the same molecule?
Answer: The inhibition at 0.1 µM was 19%.

Question: And the inhibition at 1 µM ([4]; 1000 nM)?
Answer: Its inhibition at 1 µM is 25%.

Question: And the inhibition at 0.01 µM ([5]; 10 nM)?
Answer: The inhibition at 0.01 µM was 8%.

Question: And the inhibition at 0.1 µM ([5]; 100 nM)?
Answer: The inhibition at 0.1 µM was 16%.

Question: What about the inhibition at 1 µM ([5]; 1000 nM) of the same molecule?
Answer: Its inhibition at 1 µM is 22%.

Question: And the inhibition at 0.01 µM ([6]; 10 nM)?
Answer: Its inhibition at 0.01 µM is 8%.

Question: What about the inhibition at 0.1 µM ([6]; 100 nM) of the same molecule?
Answer: The inhibition at 0.1 µM was 1%.

Question: What about the inhibition at 1 µM ([6]; 1000 nM) of the same molecule?
Answer: Its inhibition at 1 µM is 2%.

Question: And the inhibition at 0.01 µM ([7]; 10 nM)?
Answer: The inhibition at 0.01 µM was -21%.

Question: And the inhibition at 0.1 µM ([7]; 100 nM)?
Answer: The inhibition at 0.1 µM was -9%.

Question: What about the inhibition at 1 µM ([7]; 1000 nM) of the same molecule?
Answer: The inhibition at 1 µM was -3%.
